The nature of experiment [1]: Antioxidant activity assay (ABTS working solution, 734 nm). The procedure:
The antioxidant activity assay was based on the reported methods. The assay was performed on a 96-well microplate, the reaction was initiated by adding 10 µL of sample solution to 200 µL of ABTS working solution. […] The inhibition rate of each sample was calculated according to the following formula: inhibition rate = [(Ablank − Acompound)/Ablank] × 100%.

The target in another experiment is α-glucosidase. Kind of experiment: Inhibitory activity against α-glucosidase (PNPG, 405 nm). The conditions noted are these: read-out: α-glucosidase inhibitory activity IC50; 37 °C, pH 6.8, PNPG substrate.
In experiment [2] the test system is S. epidermidis (ATCC 17749). In words: Antibacterial activity, microplate assay. The class given is cell-based. The following applies: Staphylococcus epidermidis, ATCC17749.

Values after ≈ are worked out from the molar mass of the structure shown.

For `COc1ccc2c(c1O)C(=O)O[C@H](CCC[C@@H](C)O)C2` [Compound 2, Talaromarin B], the concentration for half-maximal inhibition (IC50) (commonly the point on the concentration scale where inhibition reaches its midpoint) in experiment [1] turned out to be 28400 µM. On the same count and under the same terms, as for `CC(=O)CCC[C@@H]1Cc2ccc(O)c(O)c2C(=O)O1` [Compound 6, Talaromarin F], the figure is 140 µM.

In experiment [1], `O=C1O[C@H](CCCO)Cc2cccc(O)c21` [Compound 7, (R)-3-(3-hydroxypropyl)-8-hydroxy-3,4-dihydroisocoumarin] displayed a 50% inhibitory concentration (IC50) of 170 µM. In turn, `COc1ccc2c(c1O)C(=O)O[C@H](CCCO)C2` [Compound 8, peniciisocoumarin C] yielded an IC50 in experiment [1] of 130 µM. In experiment [1], `COc1c(O)ccc2c1C(=O)OC(CCCO)C2` (centres unmarked) [Compound 9, 7-hydroxy-3-(3-hydroxypropyl)-8-methoxyisochroman-1-one] registered a concentration for half-maximal inhibition (IC50) of 100 µM. Turning to `CC(O)CCCC1Cc2c(ccc(O)c2O)C(=O)O1` (centres unmarked) [Compound 10, 5,6-dihydroxy-3-(4-hydroxypentyl)-isochroman-1-one], the IC50 on α-glucosidase was found to be 100 µM; in experiment [1], 110 µM.

In experiment [1], `CC(O)CCCC1Cc2c(O)ccc(O)c2C(=O)O1` (centres unmarked) [Compound 11, peniciisocoumarin F] came in with an IC50 of 120 µM. Same read-out and setting: as for `COc1ccc(O)c2c1C(=O)O[C@H](CCCC(C)=O)C2` [Compound 17, penicimarin H], the figure is 120 µM. Regarding `COc1c(O)ccc2c1C(=O)O[C@H](CCCC(C)=O)C2` [Compound 18, peniciisocoumarin D], the concentration for half-maximal inhibition (IC50) on α-glucosidase stood at 380 µM; in experiment [1] it was 160 µM. With `CC(=O)OCCC[C@@H]1Cc2cccc(O)c2C(=O)O1` [Compound 19, peniciisocoumarin G], in experiment [1], 150 µM corresponded to half-maximal inhibition (IC50). In the case of `COC(=O)CC[C@@H]1Cc2ccc(OC)c(O)c2C(=O)O1` [Compound 21, penicimarin N], on α-glucosidase, the half-inhibitory concentration (IC50) came to 620 µM. In the case of `Cc1c(O)cc2cc(CC(C)O)oc(=O)c2c1O` (centres unmarked) [Compound 22, 6,8-dihydroxy-3-(2-hydroxypropyl)-7-methyl-1H-isochromen-1-one], the 50% inhibitory concentration (IC50) in experiment [1] stood at 9 µM.

On to `COc1c(C)c(O)cc2cc(C[C@H](C)O)oc(=O)c12` [Compound 23, pestalotiorin], for which the IC50 on α-glucosidase is 540 µM.

The compound `Cc1c(C)c2c(c(C)c1O)CCC(C)(C(=O)O)O2` (centres unmarked) [Trolox, trolox, reference compound] showed a 50% inhibitory concentration (IC50) in experiment [1] of 290 µM. As to `O=C(O)c1cn(C2CC2)c2cc(N3CCNCC3)c(F)cc2c1=O` [ciprofloxacin], the minimum inhibitory concentration (MIC) (as a rule, the smallest concentration in the dilution series that meets the test's criterion for growth inhibition) in experiment [2] stood at 0.195 µg/mL (≈ 0.589 µM).

(Values after article PMC9229493, “Talaromarins A–F: Six New Isocoumarins from Mangrove-Derived Fungus Talaromyces flavus TGGP35” (Marine Drugs, 2022).)
